Assay results as given in patent US20240384268A1, “Oligonucleotides” (Hudson Institute of Medical Research, priority 2021, published 2024).

These sequences were tested against cGAS (Homo sapiens, UniProt Q8N884) (assay: ISD70-driven IP-10 (and IFN-β) production in THP-1 cells, ELISA). Conditions: ASO 100 nM; relative to ISD70 only, given as fraction.
Sequence of cGAS (Q8N884 whole entry): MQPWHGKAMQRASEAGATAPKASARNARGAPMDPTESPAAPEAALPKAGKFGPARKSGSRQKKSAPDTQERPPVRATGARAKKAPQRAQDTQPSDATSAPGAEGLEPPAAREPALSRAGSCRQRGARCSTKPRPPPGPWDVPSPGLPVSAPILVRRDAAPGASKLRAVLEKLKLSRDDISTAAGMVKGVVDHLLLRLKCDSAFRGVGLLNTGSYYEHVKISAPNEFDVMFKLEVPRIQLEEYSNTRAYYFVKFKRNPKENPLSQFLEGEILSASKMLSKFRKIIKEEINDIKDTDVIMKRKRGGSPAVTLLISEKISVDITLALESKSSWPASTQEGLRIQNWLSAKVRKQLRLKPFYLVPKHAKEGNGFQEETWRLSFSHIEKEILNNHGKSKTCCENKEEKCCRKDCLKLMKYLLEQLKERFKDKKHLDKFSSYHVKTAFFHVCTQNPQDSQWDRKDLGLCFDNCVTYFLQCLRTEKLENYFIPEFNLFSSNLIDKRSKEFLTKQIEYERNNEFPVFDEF
Format: cell-based
Parameters: endogenous in cells; host or cells: THP-1 (undifferentiated)
In the case of “AAAGGACTGAGGAAAG (antisense; LNA-modified, pattern not given here) [CAMSAP1-6273 LNA KL]”, the “cGAS 100 nM (averaged IP-10 level relative to ISD70 condition)” value was 0.675.
With “AACACTTCGTGGGGTC (antisense; LNA-modified, pattern not given here) [HPRT LNA-666 V1]” the “cGAS 100 nM (averaged IP-10 level relative to ISD70 condition)” value was 0.598.
“AACCCCTTTCACCATC (antisense; LNA-modified, pattern not given here) [MB21D1-689 LNA KL]” was tested, and the “cGAS 100 nM (averaged IP-10 level relative to ISD70 condition)” value was 0.621.
In the case of “AATCCAACAAAGTCTG (antisense; LNA-modified, pattern not given here) [HPRT LNA-692 KL]”, the “cGAS 100 nM (averaged IP-10 level relative to ISD70 condition)” value was 0.649.
With “ACCACGTCTGCTCTAA (antisense; LNA-modified, pattern not given here) [CAMSAP1-1635 LNA KL]” the “cGAS 100 nM (averaged IP-10 level relative to ISD70 condition)” value was 0.638.
With “ACGTTCAGTCCTGTCC (antisense; LNA-modified, pattern not given here) [HPRT LNA-294 V1]” the “cGAS 100 nM (averaged IP-10 level relative to ISD70 condition)” value was 0.880.
For “ACTTCGTGGGGTCCTT (antisense; LNA-modified, pattern not given here) [HPRT LNA-663 V1]”, the “cGAS 100 nM (averaged IP-10 level relative to ISD70 condition)” value was 0.937.
For “AGATTTCAGAGCAGCT (antisense; LNA-modified, pattern not given here) [EGFR-4885 LNA KL]”, the “cGAS 100 nM (averaged IP-10 level relative to ISD70 condition)” value was 0.625.
With “AGCTTCGAGGCCCCAG (antisense; LNA-modified, pattern not given here) [MB21D1-616 LNA V1]” the “cGAS 100 nM (averaged IP-10 level relative to ISD70 condition)” value was 0.648.
With “AGGACTCCAGATGTTT (antisense; LNA-modified, pattern not given here) [HPRT LNA pos cont]” the “cGAS 100 nM (averaged IP-10 level relative to ISD70 condition)” value was 0.632.
With “AGGCCCTTCGCACTTC (antisense; LNA-modified, pattern not given here) [EGFR-1225 LNA V1]” the “cGAS 100 nM (averaged IP-10 level relative to ISD70 condition)” value was 0.629.
With “AGGTCTTGGCTTCGTG (antisense; LNA-modified, pattern not given here) [MB21D1-524 LNA V1]” the “cGAS 100 nM (averaged IP-10 level relative to ISD70 condition)” value was 0.947.
With “AGTGTTGAGATACTCG (antisense; LNA-modified, pattern not given here) [EGFR-3652 LNA KL]” the “cGAS 100 nM (averaged IP-10 level relative to ISD70 condition)” value was 0.692.
In the case of “ATCTGGCAGCCCATCA (antisense; LNA-modified, pattern not given here) [CTNN2B-2516 LNA V1]”, the “cGAS 100 nM (averaged IP-10 level relative to ISD70 condition)” value was 0.502.
In the case of “ATGGCCTCCCATCTCC (antisense; LNA-modified, pattern not given here) [HPRT LNA-330 V1]”, the “cGAS 100 nM (averaged IP-10 level relative to ISD70 condition)” value was 0.475.
With “ATGTGATGGCCTCCCA (antisense; LNA-modified, pattern not given here) [HPRT LNA-335 V1]” the “cGAS 100 nM (averaged IP-10 level relative to ISD70 condition)” value was 0.606.
In the case of “CACTTCGTGGGGTCCT (antisense; LNA-modified, pattern not given here) [HPRT LNA-664 V1]”, the “cGAS 100 nM (averaged IP-10 level relative to ISD70 condition)” value was 0.562.
“CATCCACCACGTCGTC (antisense; LNA-modified, pattern not given here) [EGFR-3266 LNA V1]” was tested, and the “cGAS 100 nM (averaged IP-10 level relative to ISD70 condition)” value was 0.902.
“CCAACACTTCGTGGGG (antisense; LNA-modified, pattern not given here) [HPRT LNA-668 V1]” was tested, and the “cGAS 100 nM (averaged IP-10 level relative to ISD70 condition)” value was 0.842.
“CCACATCCTGTGGCTC (antisense; LNA-modified, pattern not given here) [CAMSAP1-2906 LNA V1]” was tested, and the “cGAS 100 nM (averaged IP-10 level relative to ISD70 condition)” value was 0.999.
With “CCACTTGGCAGACCAT (antisense; LNA-modified, pattern not given here) [CTNN2B-1575 LNA V1]” the “cGAS 100 nM (averaged IP-10 level relative to ISD70 condition)” value was 0.532.
With “CCAGCAGGTCAGCAAA (antisense; LNA-modified, pattern not given here) [HPRT LNA-388 KL]” the “cGAS 100 nM (averaged IP-10 level relative to ISD70 condition)” value was 0.552.
With “CCTTGCACGTGGCTTC (antisense; LNA-modified, pattern not given here) [EGFR-1013 LNA V1]” the “cGAS 100 nM (averaged IP-10 level relative to ISD70 condition)” value was 0.559.
In the case of “CGGCCTCGGAAGCTCT (antisense; LNA-modified, pattern not given here) [MB21D1-168 LNA V1]”, the “cGAS 100 nM (averaged IP-10 level relative to ISD70 condition)” value was 0.617.
“CGTATTATAGCCGATT (antisense; LNA-modified, pattern not given here) [NC1 LNA PS 3-10-3]” was tested, and the “cGAS 100 nM (averaged IP-10 level relative to ISD70 condition)” value was 0.443.
With “CTGCAGCTTCCTTGTC (antisense; LNA-modified, pattern not given here) [CTNN2B-2136 LNA V1]” the “cGAS 100 nM (averaged IP-10 level relative to ISD70 condition)” value was 0.613.
“CTTCGTGGGGTCCTTT (antisense; LNA-modified, pattern not given here) [HPRT LNA-662 V1]” was tested, and the “cGAS 100 nM (averaged IP-10 level relative to ISD70 condition)” value was 0.556.
For “CTTGAAGCATCGTATC (antisense; LNA-modified, pattern not given here) [CTNN2B-3648 LNA KL]”, the “cGAS 100 nM (averaged IP-10 level relative to ISD70 condition)” value was 0.373.
In the case of “CTTGGCTTCGTGGAGC (antisense; LNA-modified, pattern not given here) [MB21D1-520 LNA V1]”, the “cGAS 100 nM (averaged IP-10 level relative to ISD70 condition)” value was 0.666.
In the case of “GAAAGGTTATGCAAGG (antisense; LNA-modified, pattern not given here) [CTNN2B-916 LNA KL]”, the “cGAS 100 nM (averaged IP-10 level relative to ISD70 condition)” value was 0.473.
For “GACTATACGCGCAATA (antisense; LNA-modified, pattern not given here) [NC5 LNA PS 3-10-3]”, the “cGAS 100 nM (averaged IP-10 level relative to ISD70 condition)” value was 0.991.
With “GAGGTCTTGGCTTCGT (antisense; LNA-modified, pattern not given here) [MB21D1-525 LNA V1]” the “cGAS 100 nM (averaged IP-10 level relative to ISD70 condition)” value was 0.508.
In the case of “GATGGCCTCCCATCTC (antisense; LNA-modified, pattern not given here) [HPRT LNA-331 V1]”, the “cGAS 100 nM (averaged IP-10 level relative to ISD70 condition)” value was 0.632.
For “GCACACTTCGTACCCA (antisense; LNA-modified, pattern not given here) [CAMSAP1-4915 LNA V1]”, the “cGAS 100 nM (averaged IP-10 level relative to ISD70 condition)” value was 0.383.
In the case of “GCACTTCAGTCTGAGC (antisense; LNA-modified, pattern not given here) [MB21D1-719 LNA KL]”, the “cGAS 100 nM (averaged IP-10 level relative to ISD70 condition)” value was 0.797.
For “GGAGGTCTTGGCTTCG (antisense; LNA-modified, pattern not given here) [MB21D1-526 LNA V1]”, the “cGAS 100 nM (averaged IP-10 level relative to ISD70 condition)” value was 1.061.
“GGCTCGGCTTGCCTAC (antisense; LNA-modified, pattern not given here) [CAMSAP1-5594 LNA V1]” was tested, and the “cGAS 100 nM (averaged IP-10 level relative to ISD70 condition)” value was 0.761.
In the case of “GGTCATTACAATAGCT (antisense; LNA-modified, pattern not given here) [HPRT LNA-475 KL]”, the “cGAS 100 nM (averaged IP-10 level relative to ISD70 condition)” value was 0.751.
In the case of “GGTCTTGGCTTCGTGG (antisense; LNA-modified, pattern not given here) [MB21D1-523 LNA V1]”, the “cGAS 100 nM (averaged IP-10 level relative to ISD70 condition)” value was 0.648.
In the case of “GTCAAGGGCATATCCT (antisense; LNA-modified, pattern not given here) [HPRT LNA-732 KL]”, the “cGAS 100 nM (averaged IP-10 level relative to ISD70 condition)” value was 0.636.
“GTCCTTGCACGTGGCT (antisense; LNA-modified, pattern not given here) [EGFR-1015 LNA V1]” was tested, and the “cGAS 100 nM (averaged IP-10 level relative to ISD70 condition)” value was 0.645.
“GTCTCTGGAGCTTCCT (antisense; LNA-modified, pattern not given here) [CAMSAP1-2456 LNA V1]” was tested, and the “cGAS 100 nM (averaged IP-10 level relative to ISD70 condition)” value was 0.627.
With “GTCTTCATCGGCCCTG (antisense; LNA-modified, pattern not given here) [CAMSAP1-2113 LNA V1]” the “cGAS 100 nM (averaged IP-10 level relative to ISD70 condition)” value was 0.809.
With “GTGATCTTGACATGCT (antisense; LNA-modified, pattern not given here) [EGFR-2790 LNA KL]” the “cGAS 100 nM (averaged IP-10 level relative to ISD70 condition)” value was 0.661.
With “GTGATGGCCTCCCATC (antisense; LNA-modified, pattern not given here) [HPRT LNA-333 V1]” the “cGAS 100 nM (averaged IP-10 level relative to ISD70 condition)” value was 0.724.
With “TACTTTCCGAGGTGTC (antisense; LNA-modified, pattern not given here) [CAMSAP1-1739 LNA KL]” the “cGAS 100 nM (averaged IP-10 level relative to ISD70 condition)” value was 0.638.
In the case of “TCCACAATCAAGACAT (antisense; LNA-modified, pattern not given here) [HPRT LNA-551 KL]”, the “cGAS 100 nM (averaged IP-10 level relative to ISD70 condition)” value was 0.601.
In the case of “TCCATACCCAAGGCAT (antisense; LNA-modified, pattern not given here) [CTNN2B-2446 LNA V1]”, the “cGAS 100 nM (averaged IP-10 level relative to ISD70 condition)” value was 0.589.
“TCCGCCCAAAGGGAAC (antisense; LNA-modified, pattern not given here) [HPRT LNA-1027 KL]” was tested, and the “cGAS 100 nM (averaged IP-10 level relative to ISD70 condition)” value was 0.860.
For “TCCTTGCACGTGGCTT (antisense; LNA-modified, pattern not given here) [EGFR-1014 LNA V1]”, the “cGAS 100 nM (averaged IP-10 level relative to ISD70 condition)” value was 0.591.
In the case of “TCGTGGGGTCCTTTTC (antisense; LNA-modified, pattern not given here) [HPRT LNA-660 V1]”, the “cGAS 100 nM (averaged IP-10 level relative to ISD70 condition)” value was 0.729.
For “TCTTCATCGGCCCTGC (antisense; LNA-modified, pattern not given here) [CAMSAP1-2112 LNA V1]”, the “cGAS 100 nM (averaged IP-10 level relative to ISD70 condition)” value was 0.548.
“TCTTGGCTTCGTGGAG (antisense; LNA-modified, pattern not given here) [MB21D1-521 LNA V1]” was tested, and the “cGAS 100 nM (averaged IP-10 level relative to ISD70 condition)” value was 0.693.

Same assay, conditions: MOE-modified ASO at 100 nM; averaged IP-10 levels relative to ISD70 condition
For “ACACTTCGTGGGGTCCTTTT (antisense; 2'-MOE modified, pattern not given here) [HPRT-663 MOE]”, the “cGAS 100 nM” value was 0.623.

Same assay, conditions: THP-1; 300 nM LNA or 200 nM MOE ASO ~30 min; ISD70 overnight (FIG. 21, 23)
“CTTGAAGCATCGTATC (antisense; LNA-modified, pattern not given here) [CTNN2B-3648 LNA KL]” was tested, and the “inhibition of cGAS in THP-1, LNA and MOE ASO validation (in words)” value was “failed to significantly inhibit cGAS”.
